Paper PMC7541553 (Molecular cancer therapeutics, 2020)

Design: species or system BALB/C mice
Settings: mouse, in vivo, iv

t1/2 in the circulation: 33.4 ± 0.9 min
Substance: Arg-Gly-Asp [RGD]
